Assay results from patent US20110039787A1, “COMPOSITIONS, KITS AND METHODS FOR TREATING BENIGN PROSTATE HYPERPLASIA” (priority 2009, published 2011).
Square brackets hold non-standard residues; d marks the D form. Peptide text beside a SMILES is read from it. * marks the point of attachment. dPhe(4-NHCONH2) = NC(=O)Nc1ccc(C[C@@H](N)C(=O)O)cc1; Dihydroorotyl(S) = O=C1C[C@@H](C(=O)*)NC(=O)N1; dPhe(4-Cl) = N[C@H](Cc1ccc(Cl)cc1)C(=O)O; Phe(4-NH2) = Nc1ccc(C[C@H](N)C(=O)O)cc1; d2Nal = N[C@H](Cc1ccc2ccccc2c1)C(=O)O; Lys(iPr) = CC(C)NCCCC[C@H](N)C(=O)O; d3Pal = N[C@H](Cc1cccnc1)C(=O)O

Assays:
men with BPH [1] = test: Peak (maximal) urinary flow by flowmetry; assay type: in vivo
Method: (§1) For each patient, the following parameters were measured or assessed (using the methods discussed below), at time points of screening day 0 (e.g., −7 days, “baseline”), day 14, day 28, and day 42:
2) Efficacy Endpoints—the measured Peak Urinary Flow, Post-void Residual Volume, and Prostate Volume.
Peak urinary flow was determined by flowmetry using the Uropower device (Wiest, World of Medicine AG, Germany). The device fulfilled the International Continence Society standards for maximum urinary flow. The measurement of urinary flow was done in a sitting position.
The Qmax is the maximal urinary flow rate. It is a traditional parameter used in BPH trials and is a good indicator of degree of bladder outlet obstruction (BOO).

men with BPH [2] = test: IPSS questionnaire (sum of scores), clinical trial in BPH patients; assay type: in vivo
Method: as §1
After the initial 6-week treatment period of the exploratory study had been completed, a 12-month follow-up period looking at long-term efficacy commenced. Interim data of the main efficacy variables (IPSS, IPSS Global QoL, prostate volume, urinary flow, and post-void residual volume—measured as set out below) after 6 months' follow-up are also presented herein at Tables 1, 2, 3, and FIG. 1b. FIG. 1b also includes IPSS data at 9 and 12 months.
The IPSS was developed in 1991 by the American Urological Association to assess the severity of urinary symptoms related to BPH (Barry, M. J., et al., The American Urological Association symptom index for benign prostatic hyperplasia. The Measurement Committee of the American Urological Association. J Urol, 1992. 148(5): p. 1549-57; discussion 1564). The IPSS has been widely used in clinical studies, has undergone extensive validation, and its psychometric properties are well documented in both the original version (containing a 1-month recall) as well as the ‘acute’ version used in this study (containing a one-week recall). The WHO recommended the use of this instrument for the evaluation of BPH, and it is considered to be the internationally accepted, standard questionnaire for assessing lower urinary tract symptoms.
The patients completed the IPSS questionnaire to evaluate their urinary symptoms. The IPSS is a patient-administered questionnaire containing seven items to evaluate symptoms of urinary obstruction (i.e., incomplete emptying, frequency, hesitancy, urgency, weak stream, straining, nocturia) over the preceding week. Each urinary symptom question is assigned points from 0 to 5 indicating increasing severity of the particular symptom. The total score can therefore range from 0 to 35 (0-7: mildly symptomatic; 8-19: moderately symptomatic; 20-35: severely symptomatic). A reduction in total score over the treatment period is indicative of prostate symptom improvement.

[3] = across all patient groups, Day 42
[4] = 16+16 mg, Month 6 follow up, n=6
[5] = 32+32 mg, Month 6 follow up, n=7
[6] = all treatment groups (50 patients), Day 42

## CC(=O)N[C@H](Cc1ccc2ccccc2c1)C(=O)N[C@H](Cc1ccc(Cl)cc1)C(=O)N[C@H](Cc1cccnc1)C(=O)N[C@@H](CO)C(=O)N[C@@H](Cc1ccc(NC(=O)[C@@H]2CC(=O)NC(=O)N2)cc1)C(=O)N[C@H](Cc1ccc(NC(N)=O)cc1)C(=O)N[C@@H](CC(C)C)C(=O)N[C@@H](CCCCNC(C)C)C(=O)N1CCC[C@H]1C(=O)N[C@H](C)C(N)=O [Degarelix, D-Alaninamide, N-acetyl-3-(2-naphthalenyl)-D-alanyl-4-chloro-D-phenylalanyl-3-(3-pyridinyl)-D-alanyl-L-seryl-4-[[[(4S)-hexahydro-2,6-dioxo-4-pyrimidinyl]carbonyl]amino]-L-phenylalanyl-4-[(aminocarbonyl)amino]-D-phenylalanyl-L leucyl-N6-(1-methylethyl)-L-lysyl-L-prolyl] (Ac-[d2Nal][dPhe(4-Cl)][d3Pal]S[Phe(4-NH2)](Dihydroorotyl(S))[dPhe(4-NHCONH2)]L[Lys(iPr)]P[dA]-NH2)
Men with BPH [1]; 32 mg, Day 42 (baseline 11.7)
  Mean maximal urinary flow: 11.2 mL/s
Men with BPH [1]; 64 mg, Day 42 (baseline 9.1)
  Mean maximal urinary flow: 11.9 mL/s
Men with BPH [1]; 16+16 mg, Day 42 (baseline 10.0)
  Mean maximal urinary flow: 10.1 mL/s
Men with BPH [1]; 32+32 mg, Day 42 (baseline 9.7)
  Mean maximal urinary flow: 12.2 mL/s
Men with BPH [1]; [3]
  Number of patients in whom maximal urinary flow decreased compared to baseline: 25 patients
  Number of patients in whom maximal urinary flow increased compared to baseline: 24 patients
  Number of patients in whom maximal urinary flow remained unchanged: 1 patient
Men with BPH [2]; 32 mg and 32+32 mg groups, 9 and 12 months (FIG. 1b)
  Improvements in mean sum of IPSS scores: still indicated
Men with BPH [2]; 32 mg s.c. (Day 0), Day 14, N=12
  Mean change from baseline in IPSS score, mean (SD): −7.8 (8.7)
Men with BPH [2]; 32 mg, Day 42
  Percentage responders (decrease in IPSS of at least 30% as compared to baseline): 92%
Men with BPH [2]; 32 mg, Day 42, N=12
  Mean IPSS score, mean (SD): 9.1 (6.2)
  Mean change from baseline in IPSS score, mean (SD): −13.2 (6.6)
Men with BPH [2]; 32 mg, Day 42, N=12, listed as degarelix
  Mean change from baseline in IPSS score, mean (SD): −13.2
Men with BPH [2]; 32 mg, Month 6 follow up, n=7
  Mean IPSS score, mean (SD): 10.4 (6.3)
  Mean change from baseline in IPSS score, mean (SD): −11.6 (8.3)
  Percentage responders (decrease in IPSS of at least 30% as compared to baseline): 86%
Men with BPH [2]; 64 mg s.c. (Day 0), Day 14, N=13
  Mean change from baseline in IPSS score, mean (SD): −8.0 (4.0)
Men with BPH [2]; 64 mg, Day 42
  Percentage responders (decrease in IPSS of at least 30% as compared to baseline): 85%
Men with BPH [2]; 64 mg, Day 42, N=13
  Mean IPSS score, mean (SD): 11.8 (5.9)
  Mean change from baseline in IPSS score, mean (SD): −10.0 (5.0)
Men with BPH [2]; 64 mg, Day 42, N=13, listed as degarelix
  Mean change from baseline in IPSS score, mean (SD): −10.0
Men with BPH [2]; 64 mg, Month 6 follow up, n=4
  Mean IPSS score, mean (SD): 16.0 (8.7)
  Mean change from baseline in IPSS score, mean (SD): −4.0 (3.6)
Men with BPH [2]; 16+16 mg s.c. (Day 0 + Day 14), Day 14, N=13
  Mean change from baseline in IPSS score, mean (SD): −3.2 (5.4)
Men with BPH [2]; 16+16 mg, Day 42
  Percentage responders (decrease in IPSS of at least 30% as compared to baseline): 54%
Men with BPH [2]; 16+16 mg, Day 42, N=13
  Mean IPSS score, mean (SD): 11.6 (4.5)
  Mean change from baseline in IPSS score, mean (SD): −6.1 (4.6)
Men with BPH [2]; 16+16 mg, Day 42, N=13, listed as degarelix
  Mean change from baseline in IPSS score, mean (SD): −6.1
Men with BPH [2]; [4]
  Mean IPSS score, mean (SD): 16.3 (4.7)
  Mean change from baseline in IPSS score, mean (SD): −2.5 (4.3)
  Percentage responders (decrease in IPSS of at least 30% as compared to baseline): 33%
Men with BPH [2]; 32+32 mg s.c. (Day 0 + Day 14), Day 14, N=12
  Mean change from baseline in IPSS score, mean (SD): −5.5 (5.0)
Men with BPH [2]; 32+32 mg, Day 42
  Percentage responders (decrease in IPSS of at least 30% as compared to baseline): 83%
Men with BPH [2]; 32+32 mg, Day 42, N=12
  Mean IPSS score, mean (SD): 8.6 (5.7)
  Mean change from baseline in IPSS score, mean (SD): −9.6 (4.7)
Men with BPH [2]; 32+32 mg, Day 42, N=12, listed as degarelix
  Mean change from baseline in IPSS score, mean (SD): −9.6
Men with BPH [2]; [5]
  Mean IPSS score, mean (SD): 6.7 (4.5)
  Mean change from baseline in IPSS score, mean (SD): −12.6 (9.6)
  Percentage responders (decrease in IPSS of at least 30% as compared to baseline): 86%
Men with BPH [2]; [6]
  Number of patients categorised as "mild" (IPSS 0-7): 17 patients
  Number of patients categorised as "moderate" (IPSS 8-19): 31 patients
  Number of patients categorised as "severe" (IPSS 20-35): 2 patients
